# Reference: publication PMC11524583, “Neurons enhance blood–brain barrier function via upregulating claudin-5 and VE-cadherin expression due to glial cell line-derived neurotrophic factor secretion” (eLife, 2024)
# Several values for one entry are separate records, joined by “and”; a condition that tells them apart may be missing. Equal entries are not always repeated. Entries after “also recorded” stand apart in the source; their conditions may differ. Where two headings read alike, the source gives them in different places. Marks after values point to notes of the source that are not given here.
# Experiments:
# [1] = in vitro; conditions: human
# [2] = tested on: triple co-culture BBB model (hCMEC/D3, U251 and SH-SY5Y cells)
# [3] = in vitro; conditions: human; remark: listed apart in the source
# [4] = in situ brain perfusion in rodents; published permeability multiplied by VSA 150 cm^2/g; ref Summerfield et al., 2007; cited from earlier work
# [5] = unbound fraction in brain, cited from earlier work
# [6] = tested on: hCMEC/D3 mono-culture BBB model
# [7] = tested on: triple co-culture BBB model (hCMEC/D3, U251 and SH-SY5Y cells); test: In vitro BBB permeability study (Papp), triple co-culture BBB model; conditions: for decreased permeability of fluorescein and FITC-Dex in the triple co-culture BBB model, effect of inhibitor: 3 μM SPP-86 or 5 μM PP2
# [8] = tested on: hCMEC/D3 mono-culture BBB model; test: In vitro BBB permeability study (Papp), hCMEC/D3 mono-culture BBB model; conditions: for GDNF-decreased permeability of fluorescein and FITC-Dex, effect of inhibitor: hCMEC/D3 mono-culture, 200 pg/ml GDNF, 3 μM SPP-86 or 5 μM PP2
# [9] = tested on: hCMEC/D3 mono-culture BBB model; test: TEER of hCMEC/D3 mono-culture BBB model; assay type: cell-based, Homo sapiens; conditions: hCMEC/D3 mono-culture, 200 pg/ml GDNF, day 6; 3 μM SPP-86 or 5 μM PP2
# [10] = tested on: triple co-culture BBB model (hCMEC/D3, U251 and SH-SY5Y cells); test: TEER of triple co-culture BBB model; assay type: cell-based, Homo sapiens; conditions: for increased TEER values in the triple co-culture BBB model, effect of inhibitor: day 6, 3 μM SPP-86 or 5 μM PP2
# Protocol: The establishment process of the triple co-culture model is illustrated in Figure 9. SH-SY5Y cells were seeded at a density of 4.5 × 10^4 cells/cm^2 in plates and differentiated with 10 μM retinoic acid (Sigma-Aldrich, St. Louis, MO, USA) for 72 hr. The differentiated SH-SY5Y cells were cultured in the fresh DMEM/F12 medium containing 10% FBS. U251 cells were seeded at 2 × 10^4 cells/cm^2 on the bottom of Transwell inserts (PET, 0.4 µm pore size, SPL Life Sciences, Pocheon, Korea) coated with rat-tail collagen (Corning Inc, Corning, NY, USA). Next, the inserts were suspended in plate wells containing the culture medium after 5 hr of incubation. After 24 hr of incubation, hCMEC/D3 cells were seeded on the apical side of the inserts at 3 × 10^4 cells/cm^2 and cultured for another 48 hr. Then, the inserts seeded with U251 and hCMEC/D3 cells were suspended in plates seeded with differentiated SH-SY5Y cells and co-cultured for another 6 days. The culture medium was replaced every 24 hr. TEER was periodically measured using a Millicell-ERS (MERS00002) instrument (Millipore, Billerica MA, USA) to monitor cell confluence and development of TJs.
# [11] = tested on: claudin-5; test: Western blot of claudin-5 expression in hCMEC/D3 cells; assay type: cell-based, Homo sapiens; conditions: hCMEC/D3 cells, anti-GDNF antibody 0.25, 0.5, 1.0 μg/ml; for GDNF-induced claudin-5 expression: 200 pg/ml GDNF, 3 μM SPP-86, 5 μM PP2, 3 μM LY294002, 2 μM U0126, 5 μM SP600125, 2 μM SB203580; for US-CM-induced claudin-5 expression: 3 μM SPP-86, 5 μM PP2, 3 μM LY294002, 2 μM U0126
# Protocol: (§1) Whole-cell and tissue lysates, nucleoprotein, and cytoplasmic protein were prepared using RIPA Lysis Buffer (Beyotime, Shanghai, China) as the described method ([Wu et al., 2021]). Proteins were separated through sodium dodecyl sulfate–polyacrylamide gel electrophoresis and transferred onto nitrocellulose or polyvinylidene difluoride membranes. The membranes were blocked with 5% skim milk and incubated with corresponding primary antibodies at 4°C overnight. After being washed with Tris-buffered saline Tween buffer, the membranes were incubated with secondary antibodies (Cell Signaling Technology, MA, USA) at 1:3000 dilution: Anti-mouse IgG, HRP-linked Antibody (#7076), Anti-rabbit IgG, HRP-linked Antibody (#7074). Protein levels were visualized using a highly sensitive ECL western blotting substrate and a gel imaging system (Tanon Science & Technology, Shanghai, China).
# (§2) CM of U251 cells (U-CM), SH-SY5Y cells (S-CM), or co-culture of U251 and SH-SY5Y cells (US-CM) was prepared. U251 cells were seeded at the top of the insert membrane and suspended on 6-well plates seeded with differentiated SH-SY5Y cells to co-culture U251 cells with SH-SY5Y cells. The medium was collected every 24 hr. The CMs were subsequently used for hCMEC/D3 cell culture after filtrating with 0.2 μm filters for 144 hr. The levels of GDNF, bFGF, IGF-1, and TGF-β in CMs were measured using corresponding ELISA kits according to the manufacturers’ instructions.
# (§3) Exogenous and endogenous GDNF in the medium was neutralized with anti-GDNF antibody (#AF-212-NA, R&D system, Minneapolis, MN, USA). 0.25, 0.5, and 1.0 μg/ml anti-GDNF antibody was added into the US-CM or medium containing 200 pg/ml GDNF, and then the medium was preincubated at 4°C for 1 hr. The hCMEC/D3 cells were incubated with 200 pg/ml GDNF or US-CM containing anti-GDNF antibody or not for 6 days, and then cell lysate was collected for western blot. The medium was replaced every 24 hr.
# (§4) Here, hCMEC/D3 cells were plated in the plates or culture dishes at 6 × 10^4 cells/cm^2 and transfected with 10 nM of negative control or human FOXO1, ETS1, and CDH5 siRNA (Tsingke Biotechnology, Beijing, China) for 12 hr using Lipofectamine 3000 (Invitrogen, Carlsbad, CA, USA) reagent according to the manufacturer’s instructions. Cells were then incubated with a medium containing GDNF for 72 hr.
# The plasmids encoding FOXO1 (EX-Z7404-M02) were constructed by GeneCopoeia (Rockville, MD, USA). The hCMEC/D3 cells were plated in plates or dishes at 6 × 10^4 cells/cm^2. They were subsequently transfected with 1 µg of negative control or plasmids encoding FOXO1 6 hr using Lipofectamine 3000 reagent according to the manufacturer’s instructions. Transfected cells were then incubated with the medium containing GDNF for 72 hr.
# [12] = tested on: VE-cadherin; test: Western blot of VE-cadherin expression in hCMEC/D3 cells; assay type: cell-based, Homo sapiens; conditions: hCMEC/D3 cells, anti-GDNF antibody 0.25, 0.5, 1.0 μg/ml; for GDNF-induced VE-cadherin expression: 200 pg/ml GDNF, 3 μM SPP-86, 5 μM PP2, 3 μM LY294002, 2 μM U0126, 5 μM SP600125, 2 μM SB203580; for US-CM-induced VE-cadherin expression: 3 μM SPP-86, 5 μM PP2, 3 μM LY294002, 2 μM U0126
# Protocol: as §1, §2, §3, §4
smiles,measurement,setting,value
NC12CC3CC(CC(C3)C1)C2 [Amantadine],Papp A→B at 30 min,[1]; Papp (individual replicate),3.04 ×10⁻⁶ cm/s
same,Papp A→B at 30 min,"[1]; Papp, Triple",3.64 ± 0.26 ×10⁻⁶ cm/s
same,PS,"[2]; human, 30 min",165.23 µL/min/g
same,Papp A→B at 30 min,"[3]; Papp, Mono",6.84 ± 0.95 ×10⁻⁶ cm/s
same,PSObs,[4],116.10^† μl/min/g
same,"fu, brain","[5]; ref Esaki et al., 2019",0.1985^*
same,"PSPre, Mono",[6]; human,310.22 µL/min/g
same,PS,"[6]; human, 30 min",310.22 µL/min/g
NC(=O)N1c2ccccc2C=Cc2ccccc21 [Carbamazepine],Papp A→B at 30 min,"[1]; Papp, Triple",11.7 ± 0.15 ×10⁻⁶ cm/s
same,PS,"[2]; human, 30 min",908.69 µL/min/g
same,Papp A→B at 30 min,"[3]; Papp, Mono",34.4 ± 1.26 ×10⁻⁶ cm/s
same,PSObs,[4],959.40^† μl/min/g
same,"fu, brain","[5]; ref Maurer et al., 2005",0.116^¶
same,"PSPre, Mono",[6]; human,2666.89 µL/min/g
same,PS,"[6]; human, 30 min",2666.89 µL/min/g
CC(NC(C)(C)C)C(=O)c1cccc(Cl)c1 (centres unmarked) [Buproprion],PS,[2],850.58 µL/min/g
same,Papp A→B,"[7]; read-out: Papp Mean, Triple co-culture BBB model, mean of 4 replicates",11.3 ×10⁻⁶ cm/s
same,PS,[6],1139.58 µL/min/g
same,Papp A→B,"[8]; read-out: Papp Mean, Mono-culture BBB Model, mean of 4 replicates",15.2 ×10⁻⁶ cm/s
CC(C)n1nc(C#Cc2ccccc2)c2c(N)ncnc21 [SPP-86],"GDNF-increased TEER values, effect of inhibitor",[9],almost abolished
same,"decreased permeability of fluorescein and FITC-Dex in the triple co-culture BBB model, effect of inhibitor",[7],completely reversed
same,TEER,"[10]; Figure 2Q, group Triple+SPP, Day3, individual replicates, listed as SPP",56.76 Ω·cm2 and 57.75 Ω·cm2 and 55.77 Ω·cm2 and 59.4 Ω·cm2
same,TEER,"[10]; Figure 2Q, group Triple+SPP, Day4, individual replicates, listed as SPP",63.03 Ω·cm2 and 62.37 Ω·cm2 and 61.38 Ω·cm2 and 59.4 Ω·cm2
same,TEER,"[10]; Figure 2Q, group Triple+SPP, Day5, individual replicates, listed as SPP",71.94 Ω·cm2 and 75.24 Ω·cm2 and 74.25 Ω·cm2 and 72.27 Ω·cm2
same,TEER,"[10]; Figure 2Q, group Triple+SPP, Day6, individual replicates, listed as SPP",75.24 Ω·cm2 and 76.56 Ω·cm2 and 75.9 Ω·cm2 and 74.25 Ω·cm2
same,"increased TEER values in the triple co-culture BBB model, effect of inhibitor",[10],completely reversed
same,GDNF-induced claudin-5 expression,[11],markedly attenuated; also recorded: significantly suppressed
same,US-CM-induced claudin-5 expression,[11],markedly attenuated; also recorded: markedly reversed
same,"GDNF-decreased permeability of fluorescein and FITC-Dex, effect of inhibitor",[8],almost abolished
same,GDNF-induced VE-cadherin expression,[12],markedly attenuated; also recorded: significantly suppressed
same,US-CM-induced VE-cadherin expression,[12],markedly attenuated; also recorded: markedly reversed
CC(C)(C)n1nc(-c2ccc(Cl)cc2)c2c(N)ncnc21 [PP2],"GDNF-increased TEER values, effect of inhibitor",[9],almost abolished
same,"decreased permeability of fluorescein and FITC-Dex in the triple co-culture BBB model, effect of inhibitor",[7],completely reversed
same,TEER,"[10]; Triple+PP2, Day3, single replicates, Figure 2S",61.05 Ω·cm2 and 61.38 Ω·cm2 and 59.07 Ω·cm2 and 63.36 Ω·cm2
same,TEER,"[10]; Triple+PP2, Day4, single replicates, Figure 2S",66.66 Ω·cm2 and 65.01 Ω·cm2 and 64.68 Ω·cm2 and 62.04 Ω·cm2
same,TEER,"[10]; Triple+PP2, Day5, single replicates, Figure 2S",81.51 Ω·cm2 and 78.21 Ω·cm2 and 77.88 Ω·cm2 and 76.89 Ω·cm2
same,TEER,"[10]; Triple+PP2, Day6, single replicates, Figure 2S",78.21 Ω·cm2 and 80.19 Ω·cm2 and 76.23 Ω·cm2 and 79.2 Ω·cm2
same,"increased TEER values in the triple co-culture BBB model, effect of inhibitor",[10],completely reversed
same,GDNF-induced claudin-5 expression,[11],markedly attenuated
same,US-CM-induced claudin-5 expression,[11],markedly attenuated
same,"GDNF-decreased permeability of fluorescein and FITC-Dex, effect of inhibitor",[8],almost abolished
same,GDNF-induced VE-cadherin expression,[12],markedly attenuated
same,US-CM-induced VE-cadherin expression,[12],markedly attenuated
CCN(CC)CCNC(=O)c1cc(Cl)c(N)cc1OC [Metoclopramide],PS,"[2]; human, 30 min",163.41 µL/min/g
same,Papp A→B at 30 min,[3]; Papp Mean,14.1 ×10⁻⁶ cm/s
same,Papp A→B at 30 min,"[3]; Papp, Mono",14.1 ± 1.44 ×10⁻⁶ cm/s
same,PSObs,[4],125.10^† μl/min/g
same,"fu, brain","[5]; ref Summerfield et al., 2007",0.365^†
same,"PSPre, Mono",[6]; human,348.66 µL/min/g
same,PS,"[6]; human, 30 min",348.66 µL/min/g
CN(C)CCC=C1c2ccccc2COc2ccccc21 [Doxepin],PS,"[2]; human, 30 min",3837.60 µL/min/g
same,Papp A→B at 30 min,[3]; Papp Mean,16.9 ×10⁻⁶ cm/s
same,Papp A→B at 30 min,"[3]; Papp, Mono",16.9 ± 1.08 ×10⁻⁶ cm/s
same,PSObs,[4],2192.40^† μl/min/g
same,"fu, brain","[5]; ref Summerfield et al., 2007",0.025^†
same,"PSPre, Mono",[6]; human,6076.80 µL/min/g
same,PS,"[6]; human, 30 min",6076.80 µL/min/g
CN1CCN(C2=Nc3cc(Cl)ccc3Nc3ccccc32)CC1 [Clozapine],Papp A→B at 30 min,"[1]; Papp, Triple",12.9 ± 2.06 ×10⁻⁶ cm/s
same,PS,"[2]; human, 30 min",8272.72 µL/min/g
same,Papp A→B at 30 min,[3]; Papp (individual replicate),38.9 ×10⁻⁶ cm/s
same,Papp A→B at 30 min,"[3]; Papp, Mono",39 ± 0.54 ×10⁻⁶ cm/s
same,"fu, brain","[5]; ref Bhyrapuneni et al., 2018",0.0056
same,"fu, brain","[5]; ref Cremers et al., 2012",0.014^**
same,"PSPre, Mono",[6]; human,"25,052.57 μl/min/g"
same,PS,"[6]; human, 30 min",25052.57 µL/min/g
